This is an account of results in PubChem BioAssay (NCI).

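96-well plates; 48 h exposure; 5 concentrations. Endpoints by linear interpolation between flanking doses. Not reached: highest tested concentration assigned. Abbreviation: GI50, concentration required for 50% inhibition of growth. TGI: concentration producing complete growth inhibition.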

What all share (assay): inhibition of tumour cell growth, NCI panel, 48 h
In assay [1] the test system is A498 renal.
In assay [2] the test system is 786-0 renal.
Assay [3] has as its system UACC-62 melanoma.
Assay [4] deals with SF-268 CNS.
For assay [5], the system named is SK-OV-3 ovarian.
For assay [6], the system named is U251 CNS.
The subject of assay [7] is KM12 colon.
The subject of assay [8] is SK-MEL-28 melanoma.
The test system of assay [9] is HOP-92 NSCLC.
The subject of assay [10] is K-562 leukemia.

As to `N#Cc1c(Oc2ccc(F)c(NC(=O)Cc3cccc(C(F)(F)F)c3)c2)ccc2nc(NC(=O)C3CC3)sc12`, the GI50 was 0.224 µM in assay [1]; 1.33 µM in [2]; 0.0262 µM in [3]; 1.35 µM in [4]; 1.93 µM in [5]; 0.491 µM in assay [6]. The GI50 in assay [7] is 0.765 µM; in [8], 0.0292 µM; in assay [9] it was 0.278 µM; in [10], 0.385 µM. The TGI in assay [1] is 2.56 µM; in assay [2], over 100 µM; in assay [4], over 100 µM; in assay [5], over 100 µM; in assay [6] it was over 100 µM; in assay [7], over 100 µM. Further, the TGI in assay [8] is over 100 µM; in assay [9], 2.19 µM; in [10] it was over 100 µM.
Take `Cc1cc2c(C(C)C)c(O)c(O)c(C=O)c2c(O)c1-c1c(C)cc2c(C(C)C)c(O)c(O)c(C=O)c2c1O` (tested in a mixture with another compound): the GI50 in assay [1] is 1.29 µM; in assay [2], 0.819 µM; in [3], 1.87 µM; in assay [4], 1.06 µM; in assay [5] it was 1.78 µM; in assay [6], 0.502 µM. Besides, the GI50 in assay [7] is 0.394 µM; in assay [8], 1.64 µM; in assay [9], 0.223 µM; in assay [10], 0.425 µM. Moreover, the TGI in assay [1] was 2.92 µM; in assay [2] it was 3.29 µM; in [3], 4.23 µM; in assay [4], 3.26 µM; in [5], 9.33 µM; in assay [6], 1.93 µM. Further, the TGI turned out to be 1.51 µM in [7], 3.64 µM in assay [8], 0.909 µM in assay [9] and 20.7 µM in [10].
Consider `C[C@@H]1CN2[C@H]3[C@@H]1CC[C@]31CCC(=O)O[C@]1(C)[C@@H]1CC[C@H]3CCC=C3[C@@H]12`, for which the GI50 in assay [1], in assay [2], in assay [3], in assay [4], in [5] and in [6] was over 70 µM in each case. For the same compound, the GI50 in [7] is over 70 µM; in assay [8], over 70 µM; in [9], 38.4 µM; in [10], over 70 µM. Moreover, the TGI in assay [1], in assay [2], in [3], in [4], in assay [5] and in assay [6] was over 70 µM in each case. The TGI in [7], in assay [8], in [9] and in assay [10] was over 70 µM each time.
For the compound `O=C(CC1(O)C(=O)Nc2c(Cl)ccc(Cl)c21)c1ccc(C2CC2)cc1` (stereo not drawn), the GI50 in assay [1] is 0.183 µM; in assay [2] it was 1.78 µM; in assay [3], 0.508 µM; in assay [4] it was 2.98 µM; in assay [5], 1.33 µM; in assay [6] it was 1.13 µM. Besides, the GI50 in assay [7] was 0.445 µM; in assay [8] it was 2.51 µM; in [9], 0.769 µM; in assay [10] it was 0.152 µM. Further, the TGI was 0.754 µM in assay [1]; 16.9 µM in [2]; 17.4 µM in assay [3]; 23.4 µM in assay [4]; 17 µM in assay [5]; 14.6 µM in [6]. Moreover, the TGI in [7] is 15.9 µM; in assay [8], 21.9 µM; in assay [9] it was 14.8 µM.
Turning to `C[C@@H](Oc1cc(-c2cnn(C3CC4(CCCNC4)C3)c2)cnc1N)c1c(Cl)ccc(F)c1Cl` (stereo partly drawn), the GI50 in assay [1] was 0.532 µM; in assay [2] it was 1.64 µM; in [3], 1.58 µM; in assay [4] it was 1.81 µM; in [5], 2.61 µM; in [6], 1.41 µM. Also, the GI50 is 0.0485 µM in assay [7], 1.54 µM in assay [8], 0.807 µM in assay [9] and 0.265 µM in assay [10]. The TGI in assay [1] came out at 2.53 µM; in assay [2], 3.19 µM; in [3] it was 3.09 µM; in assay [4], 6.02 µM; in assay [5], 6.96 µM; in [6], 3.43 µM. Besides, the TGI in assay [7] was 1.32 µM; in assay [8], 3.03 µM; in assay [9], 3.42 µM; in [10] it was 1.41 µM.
Regarding `Cc1cccnc1CNC1CC(NCc2ncccc2C)CC(NCc2ncccc2C)C1` (stereo not drawn), the GI50 is 1.78 µM in assay [1]; 2.15 µM in assay [2]; 1.82 µM in assay [3]; 1.99 µM in assay [4]; 1.98 µM in [5]; 1.81 µM in assay [6]. The GI50 in assay [7] was 4.51 µM; in [8], 3.17 µM; in [9] it was 1.1 µM; in [10], 2.38 µM. Moreover, the TGI was determined as 3.3 µM in assay [1]; 4.55 µM in [2]; 3.63 µM in [3]; 4.05 µM in assay [4]; 3.73 µM in assay [5]; 3.36 µM in assay [6]. Moreover, the TGI in assay [7] came out at 20.4 µM; in [8] it was 12.4 µM; in assay [9] it was 2.3 µM; in assay [10], 5.56 µM.
For the compound `CS(=O)(=O)c1nc(Cl)c(Cl)c(C#N)c1Cl`, the TGI in assay [1] amounted to 35.3 µM; in assay [2] it was 4.11 µM; in [3], 10.8 µM; in assay [4] it was 21.9 µM; in assay [5], 10.7 µM; in assay [6], 11.7 µM. In addition, the TGI in [7] was determined as 17.6 µM; in assay [8], 4.75 µM; in assay [9], 3.73 µM; in assay [10], 20.6 µM.
As to `COC(=O)C(=O)C1CCCCC(C2=NC3NN=C(N)N3C2=O)C1=O` (stereo not drawn), the TGI in [1], in assay [2], in assay [3], in [4], in [5] and in assay [6] was over 100 µM each time. Further, the TGI in [7], in assay [8], in [9] and in [10] was over 100 µM each time.
